Earlier results in PMC5774433 (MedChemComm, 2017).

System: menin

increase in the binding affinity compared to its non-fluorinated counterpart: over 20 fold
SMILES: CC1(C)CN=C(N2CCN(c3ncnc4sc(CC(F)(F)F)cc34)CC2)S1 [MI-2-2]
